Source: patent US20250042942A1, “PEPTIDE HAVING PHYSIOLOGICAL ACTIVITIES AND USE THEREOF” (CAREGEN CO., LTD., priority 2021, published 2025)
Peptide text beside a SMILES is read from it.

System: mouse RAW264.7 cell line
Assay: Cytotoxicity, CCK-8 assay
Assay type: cell-based
Conditions: peptide 10, 30, 30, 100, and 150 μg/ml, 3 days, CCK-8, FIG. 10B
Protocol: The effect of the peptide of the present invention on cell proliferation was confirmed using CCK-8 assay. CCK-8 reagent is reduced by cellular dehydrogenase to produce a colored product, and the proliferation of cells may be confirmed through a difference in absorbance using this.
After removing the medium, CCK-8 solution (Dojindo, CCK-8 kit) was diluted 10 times in the culture medium and treated at 100 μl each. During incubation at 37° C., absorbance at a wavelength of 450 nm was measured using a microplate reader at 30-minute intervals.

CC[C@H](C)[C@H](NC(=O)[C@H](C)NC(=O)[C@@H](N)CC(N)=O)C(=O)N[C@@H](CO)C(=O)N[C@H](C(=O)N[C@@H](CC(C)C)C(=O)N[C@@H](Cc1ccc(O)cc1)C(=O)N[C@@H](Cc1ccccc1)C(=O)N[C@@H](CC(=O)O)C(=O)N[C@@H](CC(=O)O)C(=O)N[C@@H](CO)C(=O)O)C(C)C [SEQ ID NO: 1, NAISVLYFDDS] (H-NAISVLYFDDS-OH)
toxicity to mouse macrophages: not toxic
